For 1 molecule, IC50 results are on record in patent US20050037450A1, “Novel targets for lithium therapy” (Duke University, priority 2002, published 2005).

This assay has as its system Wild type yeast. The experiment in a line: Lithium inhibition of yeast growth (OD600), wild type. In kind it is cell-based, S. cerevisiae. The settings on record: Saccharomyces cerevisiae. As to the method:
FIG. 7 is a graph showing met3Δ and met14Δ strains are lithium resistant. Wild type, met3Δ, and met14Δ yeast were resuspended at 5×10^4/ml in CM/ura^− containing 2% dextrose and 1.25 μg/ml methionine. Growth at various concentrations of LiCl was measured after a 24 hr incubation at 30° C. The growth is plotted relative to growth in media lacking lithium.
FIG. 10 is a graph showing methionine supplementation induces lithium resistance. Wild type yeast were inoculated at 5×10^4 cells per ml into synthetic media with or without methionine containing the noted concentration of LiCl. Growth was assayed by spectrophotometry following 48 hrs of growth at 30° C.
Wild type yeast were grown in CM/ura^− containing 2% galactose to mid-log phase. The cultures were washed and resuspended at 5×10^5 cells/ml in CM/ura^−/met^− containing the noted lithium and chlorate concentrations. Following growth for 24 hr at 30° C., the cultures were resuspended, and growth was measured by determining the absorbance at λ=600 nm.
Since methionine effects transcriptional down regulation of the MET3 and MET14 gene products in wild type yeast, the relative lithium sensitivities of the met3Δ and met14Δ strains were assayed in growth media containing reduced methionine (1.25 μg/ml). The use of limited methionine allowed for the comparison of the relative sensitivity to lithium of yeast expressing (wild type) or lacking (met3Δ and met14Δ) PAPS synthetase activities.
The yeast system was used to determine if chlorate could be used to effect a relevant decrease in the accumulation of PAP in the presence of lithium. […] The decrease in PAP accumulation was physiologically relevant since chlorate produced a protective effect in the presence of lithium. […] When 25 mM NaClO3 is included in the culture medium, the growth inhibition is abated, with the IC50 increasing to approximately 80 mM LiCl (FIG. 11)

Molecules are shown by their SMILES. Like-named read-outs stand apart in the source and are kept apart here.

Broadly, the IC50 is the concentration at which inhibition is half-maximal. Consider `[Li]` [lithium], for which the IC50 reads like this: (CM/ura− 2% dextrose, 1.25 μg/ml methionine, 24 hr at 30° C., growth relative to media lacking lithium, read-out: IC50 of lithium for growth inhibition) approximately 40 mM; (CM/ura−/met−, 24 hr at 30° C., 25 mM NaClO3 in culture medium, read-out: IC50 of LiCl for growth inhibition with chlorate) approximately 80 mM; (synthetic media without methionine, 48 hrs at 30° C., read-out: IC50 for lithium in met− media) approximately 40 mM.
